What was measured:
[1] = system: SN12C; test: cells; settings: Homo sapiens, 48 h; for CC50: read-out: LC50
[2] = system: SR; test: cells; settings: Homo sapiens, 48 h; for CC50: read-out: LC50
[3] = system: HL-60(TB); test: cells; settings: Homo sapiens, HL-60, 48 h; for CC50: read-out: LC50
[4] = system: SK-MEL-2; test: cells; settings: Homo sapiens, SK-MEL-2, 48 h; for CC50: read-out: LC50
[5] = system: KM12; test: cells; settings: Homo sapiens, KM12, 48 h; for CC50: read-out: LC50
[6] = system: SK-MEL-28; test: cells; settings: Homo sapiens, SK-MEL-28, 48 h; for CC50: read-out: LC50
[7] = system: SW-620; test: cells; settings: Homo sapiens, SW-620, 48 h; for CC50: read-out: LC50
[8] = system: CAKI-1; test: cells; settings: Homo sapiens, CAKI-1, 48 h; for CC50: read-out: LC50
[9] = system: OVCAR-4; test: cells; settings: Homo sapiens, OVCAR-4, 48 h; for CC50: read-out: LC50
[10] = system: OVCAR-5; test: cells; settings: Homo sapiens, OVCAR-5, 48 h; for CC50: read-out: LC50
[11] = system: IGROV1; test: cells; settings: Homo sapiens, IGROV-1, 48 h; for CC50: read-out: LC50
[12] = system: K-562; test: cells; settings: Homo sapiens, K562, 48 h; for GI50: K-562, 48 h; for CC50: read-out: LC50
[13] = system: DU-145; test: cells; settings: Homo sapiens, DU-145, 48 h; for CC50: read-out: LC50
[14] = system: MDA-MB-435; test: cells; settings: Homo sapiens, MDA-MB-435, 48 h; for CC50: read-out: LC50
[15] = system: TK-10; test: cells; settings: Homo sapiens, TK-10, 48 h; for CC50: read-out: LC50
[16] = system: MALME-3M; test: cells; settings: Homo sapiens, 48 h; for CC50: read-out: LC50
[17] = Hemolytic activity, spectrophotometric; type: cell-based, human; settings: human, human red blood cells (huRBC), 5% hematocrit, 200 μg/mL, 37 °C
[18] = system: SK-OV-3; test: cells; settings: Homo sapiens, SK-OV-3, 48 h; for CC50: read-out: LC50
[19] = system: MCF7; test: cells; settings: Homo sapiens, MCF7, 48 h; for CC50: read-out: LC50
[20] = system: OVCAR-8; test: cells; settings: Homo sapiens, OVCAR-8, 48 h; for CC50: read-out: LC50
[21] = system: NCI-H522; test: cells; settings: Homo sapiens, NCI-H522, 48 h; for CC50: read-out: LC50
[22] = system: T-47D; test: cells; settings: Homo sapiens, T47D, 48 h; for CC50: read-out: LC50
[23] = system: CCRF-CEM; test: cells; settings: Homo sapiens, 48 h; for CC50: read-out: LC50
[24] = system: NCI-H460; test: cells; settings: Homo sapiens, NCI-H460, 48 h; for CC50: read-out: LC50
[25] = system: NCI/ADR-RES; test: cells; settings: Homo sapiens, 48 h

## CN(C)c1nc(NCCNS(=O)(=O)c2ccc(C(=O)/C=C/c3ccccc3)cc2)nc(N2CCOCC2)n1 [23a]
[1]
  GI50: 14.6 µM
  CC50: 56.1 µM
[2]
  GI50: 3.2 µM
  CC50: > 100 µM
[3]
  GI50: 6.18 µM
  CC50: > 100 µM
[4]
  GI50: 15.3 µM
  CC50: 56.9 µM
[5]
  GI50: 2 µM
  CC50: 8.93 µM
[6]
  GI50: 17.2 µM
  CC50: 63.9 µM
[7]
  GI50: 3.41 µM
  CC50: 42.7 µM
[8]
  GI50: 12.2 µM
  CC50: 49.9 µM
[9]
  GI50: 14.3 µM
  CC50: 54 µM
[10]
  GI50: 12.1 µM
  CC50: 55.9 µM
[11]
  GI50: 15.3 µM
  CC50: 66.4 µM
[12]
  GI50: 2.19 µM
  CC50: > 100 µM
[13]
  GI50: 15.1 µM
  CC50: 53.3 µM
[14]
  GI50: 14.7 µM
  CC50: 54.4 µM
[15]
  GI50: 16.4 µM
  CC50: 55.5 µM
[16]
  GI50: 15.2 µM
  CC50: 56.5 µM
[17]
  hemolysis at 24 h, 200 µg/mL: 0.7%
[18]
  GI50: 15.6 µM
  CC50: 56.8 µM
[19]
  GI50: 3.49 µM
  CC50: 62 µM
[20]
  GI50: 16.4 µM
  CC50: 61.7 µM
[21]
  GI50: 13.6 µM
  CC50: 54.1 µM
[22]
  GI50: 16 µM
  CC50: 87.4 µM
[23]
  GI50: 4.41 µM
  CC50: > 100 µM
[24]
  GI50: 18.2 µM
  CC50: 80.7 µM

## COc1cc(/C=C/C(=O)c2cc(OC)c(OC)c(OC)c2)ccc1Oc1nc(NCCO)nc(N2CCOCC2)n1 [20d]
[1]
  GI50: 1.79 µM
  CC50: 23.3 µM
[2]
  GI50: 0.784 µM
  CC50: > 100 µM
[3]
  GI50: 1.54 µM
  CC50: > 100 µM
[4]
  GI50: 2.76 µM
  CC50: 33.1 µM
[5]
  GI50: 2.99 µM
  CC50: > 100 µM
[6]
  GI50: 1.92 µM
  CC50: 7.53 µM
[7]
  GI50: 2.24 µM
  CC50: 26.4 µM
[8]
  GI50: 2.43 µM
  CC50: 30.4 µM
[9]
  GI50: 2.92 µM
  CC50: 33.4 µM
[10]
  GI50: 3.14 µM
  CC50: 38.4 µM
[11]
  GI50: 2.45 µM
  CC50: 26.2 µM
[12]
  GI50: 1.91 µM
  CC50: > 100 µM
[13]
  GI50: 2.99 µM
  CC50: 35.3 µM
[14]
  GI50: 3.1 µM
  CC50: 35.1 µM
[15]
  GI50: 3.12 µM
  CC50: 30.6 µM
[16]
  GI50: 2.67 µM
  CC50: 24.3 µM
[17]
  hemolysis at 24 h, 200 µg/mL: 1.2%
[18]
  GI50: 2.44 µM
  CC50: 22 µM
[19]
  GI50: 1.72 µM
  CC50: 61.5 µM
[25]
  GI50: 4.72 µM
[25]; read-out: LC50
  CC50: 95.9 µM
[20]
  GI50: 2.56 µM
  CC50: 34.7 µM
[21]
  GI50: 1.56 µM
  CC50: 6.43 µM
[22]
  GI50: 3.12 µM
  CC50: 39.9 µM
[23]
  GI50: 2.38 µM
  CC50: > 100 µM
[24]
  GI50: 1.87 µM
  CC50: 8.69 µM

Reference: PMC11012124, “Synthesis of Novel Triazine-Based Chalcones and 8,9-dihydro-7H-pyrimido[4,5-b][1,4]diazepines as Potential Leads in the Search of Anticancer, Antibacterial and Antifungal Agents” (International Journal of Molecular Sciences, 2024)
